Results on 4 compounds are retold here after patent publication US8354512B2, “Ligand and metal complex” (National Chiao Tung University, priority 2009, dated 2013).

In one series the target is HSA (Homo sapiens, UniProt P02768). The conditions noted are these: literature values; cited from earlier work.
Series [1] in a line: Water exchange rate and molecular rotational correlation time by 17O-NMR at 9.4 T. To be noted: 298 K. Format: physicochemical. The text has this:
According to the disclosure of Chem. Rev., 1999, 99, 2293-2352, the relaxivity of the metal complex is affected by the hydration number q and the correlation time τc. The correlation time τc depends on three parameters: (1) molecular rotational correlation time (τR); (2) Electron longitudinal and transverse spin relaxation time (T1e, T2e); and (3) Water residence lifetime (τm) or Water exchange rate (kex), τm^−1=kex. Since Bz-CB-TTDA and CB-TTDA have the same hydration number, comparison between Bz-CB-TTDA and CB-TTDA in relaxivity can be determined by the aforesaid parameters, i.e., the higher the parameters, the higher will be the relaxivity.
Electron longitudinal and transverse spin relaxation time (T1e, T2e) of each test sample of the metal complexes was measured by using ^17O-NMR in a magnetic field of 9.4 T. The water exchange rate at 298 K (Kex^298) and the molecular rotational correlation time at 298 K (τR^298) of each test sample were determined by using three plots of “T1 versus temperature”, “T2 versus temperature” and “chemical shift versus temperature”.

For series [2] the following is noted: cited from earlier work.
The nature of series [3]: Kinetic stability in PBS containing Zn2+. Format: physicochemical. Set-up: unit not given here. The conditions noted are these: 2.5 mM complex, 2.5 mM ZnCl2, PBS pH 7.4, 37±0.1° C., three days, NMR 20 MHz. As to the method:
Kinetic stability is evaluated by testing the stability of the metal complex in an environment containing a poisonous metal ion Zn^2+. The stability is defined as R1^p (t)/R1p (0), in which R1^P (t)=1/T1 (t), T1 is the relaxivity. The higher the R1^P (t)/R1p (0), the higher will be the stability.
2.5 mM of each of [Gd(Bz-CB-TTDA)]^2−−, [Gd(CB-TTDA)]^2− and [Gd(DTPA)]^2− was placed in a phosphate buffer saline (PBS, pH=7.4), followed by adding 2.5 mM of ZnCl2 to obtain a sample. The sample was subjected to reaction at 37±0.1° C. for three days (t=3), after which the relaxivity T1(t) of the sample was determined by using NMR (20 MHz).

Like-named read-outs stand apart in the source and are kept apart here.

Sequence of HSA (P02768 25-609): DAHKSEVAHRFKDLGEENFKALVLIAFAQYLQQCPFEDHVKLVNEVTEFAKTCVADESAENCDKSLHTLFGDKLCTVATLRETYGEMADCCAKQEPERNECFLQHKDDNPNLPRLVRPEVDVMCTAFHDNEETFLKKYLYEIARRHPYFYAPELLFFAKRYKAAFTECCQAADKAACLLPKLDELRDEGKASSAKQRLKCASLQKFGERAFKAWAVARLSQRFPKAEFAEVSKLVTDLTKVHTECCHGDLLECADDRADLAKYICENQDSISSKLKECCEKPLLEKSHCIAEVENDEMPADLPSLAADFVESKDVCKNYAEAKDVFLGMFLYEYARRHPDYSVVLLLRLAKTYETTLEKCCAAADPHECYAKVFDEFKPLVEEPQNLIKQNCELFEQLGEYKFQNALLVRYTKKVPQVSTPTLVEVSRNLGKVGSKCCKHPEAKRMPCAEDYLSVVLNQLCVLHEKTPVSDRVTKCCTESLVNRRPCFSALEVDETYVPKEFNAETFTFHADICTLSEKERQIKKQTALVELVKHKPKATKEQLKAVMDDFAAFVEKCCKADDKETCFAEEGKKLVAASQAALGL

With `O=C(O)CN(CCN(CC(=O)O)CC(=O)O)CCN(CC(=O)O)C(COCc1ccccc1)C(=O)O` (stereo not drawn) [[Gd(BOPTA)]^2−], on HSA, the “γ1^b bound relaxivity” value was 33.0^a mM^−1s^−1.
On to `O=C([O-])CN(CCN(CC(=O)[O-])CC(=O)[O-])CCN(CC(=O)[O-])CC(=O)[O-].[Gd+3]` [[Gd(DTPA)]^2−], for which, in series [1], the “kex^298 water exchange rate” value was 4.1 10^6 s^−1 and the “τR^298 molecular rotational correlation time” value came to 103 ps. Moreover, the γ1 relaxivity in series [2] (pH 7.6 ± 0.1, Am. J. Roentgenol., 1984, 142, 619-624) is on record as 3.89 ± 0.03^a mM^−1s^−1. The “R1^p (t)/R1^p (0)” value in series [3] amounted to 49.79.
As to `CCOc1ccc(C[C@@H](C(=O)O)N(CCN(CCN(CC(=O)O)CC(=O)O)CC(=O)O)CC(=O)O)cc1` [[Gd(S)-EOB-DTPA]^2−], the “γ1^b bound relaxivity” value on HSA is on record as 44.1^a mM^−1s^−1.
Take `O=C([O-])CN(CCCN(CC(=O)[O-])CC(=O)[O-])CCN(CC(=O)[O-])CC(=O)[O-].[Gd+3]` [[Gd(TTDA)]^2−]: in series [1], the “kex^298 water exchange rate” value is recorded as 146 ± 17.0 10^6 s^−1 and the “τR^298 molecular rotational correlation time” value amounted to 104 ± 12.0 ps. Moreover, the γ1 relaxivity in series [2] (pH 7.5 ± 0.1, Inorg. Chem., 2005, 44, 382) was 3.85 ± 0.03^a mM^−1s^−1.
